Test results taken from patent US20090054412A1, “Treatment of Sleep Disorders” (priority 2007, published 2009).

Assays:
[1] = Example 2: single and repeat dose pharmacokinetic, safety and pharmacodynamic study in healthy volunteers; assay type: in vivo; conditions: human
Method: A single and repeat dose pharmacokinetic safety and pharmacodynamic study of the effects of the compound of formula (II) was conducted using healthy volunteers. The compound of formula (II) was administered orally in 1 mg, 1.5 mg, 2 mg and 2.5 mg doses via a hard gelatine capsule containing the compound in powder form.

[2] = Example 3: randomized double-blind placebo-controlled crossover study in primary insomnia (PSG, patient reports, DSST, safety); assay type: in vivo, human
Method: A randomized, multicenter, double-blind, placebo-controlled crossover study was conducted to assess the efficacy of the 1.5 mg and 2.5 mg doses of the compound of formula (II) in the treatment of primary insomnia in adult patients. Specifically, one of the objectives of the study was to assess the efficacy of 1.5 mg and 2.5 mg doses on polysomnogram (PSG) and patient-reported measures of sleep. Also, the study was aimed at assessing the safety of 1.5 mg and 2.5 mg doses.
The study in this Example was performed for two consecutive nights with a 5-12 day washout between each period. The dosing was conducted 30 minutes before lights were turned out for the night via oral administration of a hard gelatine capsule containing the compound of formula (II) in powder form. PSG was taken for 8 hours from “lights out” on nights 1 and 2 of each treatment period. Centralized scoring of PSG was used. Testing for residual effects using the Digit Symbol Substitution Test (DSST) was performed at least 30 minutes after wake time (9 hours post dose).
[…] These subjects' typical bed time was between 9 pm and 1 am with at least 7 hours in bed. These subjects reported sleep latency of at least 45 minutes and total sleep time (TST) of not more than 6.5 hours in a sleep diary for at least 3 of 7 nights.
Mean wake time after sleep onset (WASO) of the patients was at least 40 minutes and mean TST was 240-420 minutes.

[3] = biological target: T1, rat GABAA receptors α3β2γ2 (Rattus norvegicus, UniProt P18508+P20236); assay: Stimulation of GABA (EC3-5)-elicited currents in Xenopus oocytes, two-electrode voltage clamp, α3β2γ2; assay type: cell-based
T1 construct: expressed in transfected cells; host or cells: Xenopus laevis oocytes, cRNA microinjected
T1 sequence (P20236 29-493): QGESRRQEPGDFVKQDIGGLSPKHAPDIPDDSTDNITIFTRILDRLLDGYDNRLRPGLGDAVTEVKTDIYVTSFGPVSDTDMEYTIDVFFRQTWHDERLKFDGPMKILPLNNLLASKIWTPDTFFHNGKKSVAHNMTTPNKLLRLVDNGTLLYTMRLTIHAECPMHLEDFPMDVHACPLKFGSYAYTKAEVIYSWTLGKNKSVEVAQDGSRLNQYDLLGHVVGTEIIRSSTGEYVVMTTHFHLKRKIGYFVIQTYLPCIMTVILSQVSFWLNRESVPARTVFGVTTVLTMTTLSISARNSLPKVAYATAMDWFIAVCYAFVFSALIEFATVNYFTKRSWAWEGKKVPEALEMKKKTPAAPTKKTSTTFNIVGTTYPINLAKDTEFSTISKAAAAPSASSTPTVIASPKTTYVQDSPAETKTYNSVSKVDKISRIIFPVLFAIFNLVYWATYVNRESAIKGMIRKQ
T1 sequence (P63138 25-474 partner limits assumed): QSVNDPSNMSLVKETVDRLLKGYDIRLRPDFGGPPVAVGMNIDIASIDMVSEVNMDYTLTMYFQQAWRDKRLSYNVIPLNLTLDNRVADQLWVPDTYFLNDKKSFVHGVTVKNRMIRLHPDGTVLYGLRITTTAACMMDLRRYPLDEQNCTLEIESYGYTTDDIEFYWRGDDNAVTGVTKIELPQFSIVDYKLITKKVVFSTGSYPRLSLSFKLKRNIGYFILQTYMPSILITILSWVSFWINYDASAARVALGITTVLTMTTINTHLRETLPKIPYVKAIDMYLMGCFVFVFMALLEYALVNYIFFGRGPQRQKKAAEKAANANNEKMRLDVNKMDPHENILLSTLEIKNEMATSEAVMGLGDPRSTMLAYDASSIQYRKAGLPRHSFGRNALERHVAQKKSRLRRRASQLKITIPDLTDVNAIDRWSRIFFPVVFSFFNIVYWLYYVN
T1 sequence (P18508 39-466): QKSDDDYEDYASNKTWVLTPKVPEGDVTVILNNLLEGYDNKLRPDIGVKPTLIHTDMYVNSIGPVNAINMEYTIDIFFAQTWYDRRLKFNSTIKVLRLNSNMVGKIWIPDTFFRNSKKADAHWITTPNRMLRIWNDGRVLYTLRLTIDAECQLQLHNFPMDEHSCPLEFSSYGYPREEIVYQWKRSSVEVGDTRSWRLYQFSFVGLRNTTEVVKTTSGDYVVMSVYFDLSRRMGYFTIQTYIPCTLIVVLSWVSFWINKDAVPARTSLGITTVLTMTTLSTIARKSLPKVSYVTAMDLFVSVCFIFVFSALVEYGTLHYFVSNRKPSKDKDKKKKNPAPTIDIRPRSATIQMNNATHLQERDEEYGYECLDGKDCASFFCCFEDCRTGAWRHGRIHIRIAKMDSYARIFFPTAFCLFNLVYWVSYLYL
Excerpt: 7-Chloro-3-(5-dimethylaminomethyl-[1,2,4]oxadiazol-3-yl)-5methyl-4,5-dihydro-imidazol[1,5,-a][1,4]benzodiazepine-6-one was used to test the effects of the compound of formula (II): […]
Similar procedures were chosen as for the investigation of other GABAA receptor subunit specific substances (e.g., Baur et al., 2005; Mol. Pharmacol. 68, 787-792).
Lobes of the ovary containing the follicles were obtained by surgical procedures from female Xenopus laevis. Follicles were singled out using a platinum loop. Fifty nL of cRNA solution at a ratio of αx:β2:γ2 of 1:1:5 (3.3-10 nM αx (x=1,2,3,5); 3.3-10 nM β2; 16.7-50 nM γ2) (Boileau et al., 2002; Neuropharmacology 43, 695-700) were microinjected into Xenopus follicles. Several hours after microinjection the follicles were freed of follicular layers and adhering connective tissue by a collagenase/hypertonic shock procedure (Sigel, 1987; J. Physiol.(Land) 386, 73-90). Oocytes were kept at constant 18° C. until measurement (1-4 days) in a modified Barth solution (88 mM NaCl, 1 mM KCl, 2.4 mM NaHCO3, 10 mM Hepes-NaOH (pH 7.5), 0.82 mM MgSO4×7H2O, 0.34 mM Ca(NO3)2×4H2O, 0.41 mM CaCl2×2H2O, 100 U Penicillin/mL, 100 μg Streptomycin/mL, sterile filtered).
Currents were measured using a home-built amplifier in combination with a xy-recorder or were digitized using a MacLab/200 (AD Instruments) and stored on a computer. Xenopus oocytes were voltage clamped using the two-electrode voltage clamp technique (electrode resistance about 0.8 MΩ) at −80 mV. The medium contained 90 mM NaCl, 1 mM KCl, 1 mM MgCl2, 1 mM CaCl2, 10 mM Na-Hepes (pH 7.4) and 0.5% DMSO.
GABA was applied for 20-50 seconds without or in combination with other drugs and a washout period of 4 minutes was allowed to ensure full recovery from desensitization, which was experimentally determined. The perfusion solution (6 mL/min) was applied through a glass capillary with an inner diameter of 1.35 mm, the mouth of which was placed about 0.4 mm from the surface of the oocyte. The rate of solution change under our conditions has been estimated 70% within less than 0.5 s (Sigel et al., 1990; Neuron 5, 703-711). The entire perfusion system and the assay chamber were cleaned between drug applications by washing with DMSO.
Data is given as mean±SD, except in the figures where data is shown for clarity as mean±SEM. Current stimulation was calculated as follows: stimulation (%)=((I(GABA+modulator)−I(GABA))/I(GABA))×100%, where I is the current amplitude. Where indicated, the stimulation was standardized to the stimulation by 1 μM diazepam (100%). To obtain FIGS. 1-4, values for current stimulation obtained at a given concentration of modulator at a given subunit combination were averaged. The data points were fitted with the equation stimulation=efficacy/(1+(potency/concentration of modulator)). The values given in the Tables (Summary) are obtained by fitting individual curves and subsequently averaging efficacy and potency.
Concentration response curves were also performed with oocytes expressing α2β2γ2, α3β2γ2, or α5β2γ2, after establishing the optimal concentration range as indicated above. […] Averaged data of the individual curves summarizing the effects of the compound of formula (II) are shown below for unstandardized and standardized stimulation.
Concentration response curves were also performed with oocytes expressing α2β2γ2, α3β2γ2, or α5β2γ2.
Current stimulation by diazepam was determined in each batch of oocytes as follows. GABA (EC3-5) was applied until a stable response was obtained. Subsequently, GABA was applied in combination with 1 μM diazepam.

For `CN(C)Cc1nc(-c2ncn3c2CN(C)C(=O)c2c(Cl)cccc2-3)no1` [compound of formula (II), 7-chloro-3-(5-dimethylaminomethyl-[1,2,4]oxadiazol-3-yl)-5-methyl-4,5-dihydro-imidazo[1,5-a][1,4]benzodiazepine-6-one], the half-life ([1]; in vivo, po) was 3 to 4 h, the “effect of food on the extent of absorption” value ([1]; oral) was “little or no effect” and the “pharmacokinetic profile on day 14 after repeat dosing compared to day 1” value ([1]; oral repeat dosing) was “no significant differences”. For the same compound, the “increase of TST compared to placebo” value ([2]; 1.5 mg) was 33.1 min, the “reduction of LPS compared to placebo” value ([2]; 1.5 mg) was 17.0 min and the “reduction of WASO compared to placebo” value ([2]; 1.5 mg) was 16.7 min. The “reduction of total wake time in hours 5-8” value ([2]; 1.5 mg) was 10.8 min, the “Number of Patients with Any Event” value ([2]; 1.5 mg (n = 71)) was 13 and the “Number of Patients with Headache” value ([2]; 1.5 mg (n = 71)) was 3. For the same compound, the “Number of Patients with Somnolence” value ([2]; 1.5 mg (n = 71)) was 2, the “Patients with Any Event, percent” value ([2]; 1.5 mg (n = 71)) was 18.3% and the “Patients with Headache, percent” value ([2]; 1.5 mg (n = 71)) was 4.2%. For the same compound, the “Patients with Somnolence, percent” value ([2]; 1.5 mg (n = 71)) was 2.8%, the safety and tolerability ([2]; 1.5 mg and 2.5 mg) was “safe and well-tolerated” and the “WASO in the second half of the night (5-8 hours after lights out)” value ([2]; 1.5 mg and 2.5 mg, compared to placebo, p<0.0001) was “reduced WASO”. For the same compound, the “patient-reported residual sedation effects” value ([2]; 1.5 mg or 2.5 mg compared with placebo) was “no patient-reported residual sedation effects”, the “Adjusted mean LPS (min), p value” ([2]; 1.5 mg vs. placebo) was “p < 0.0001” and the “Adjusted mean TST (min), p value” ([2]; 1.5 mg vs. placebo) was “p < 0.0001”. For the same compound, the “Adjusted mean WASO (min), p value” ([2]; 1.5 mg vs. placebo) was “p < 0.0001”, the “Adjusted mean total wake time, 2nd half (min), p value” ([2]; 1.5 mg vs. placebo) was “p = 0.0008” and the “increase of TST compared to placebo” value ([2]; 2.5 mg) was 45.0 min. For the same compound, the “reduction of LPS compared to placebo” value ([2]; 2.5 mg) was 20.7 min, the “reduction of WASO compared to placebo” value ([2]; 2.5 mg) was 25.7 min and the “reduction of total wake time in hours 5-8” value ([2]; 2.5 mg) was 16.2 min. The “Number of Patients with Any Event” value ([2]; 2.5 mg (n = 71)) was 18, the “Number of Patients with Headache” value ([2]; 2.5 mg (n = 71)) was 6 and the “Number of Patients with Somnolence” value ([2]; 2.5 mg (n = 71)) was 4. For the same compound, the “Patients with Any Event, percent” value ([2]; 2.5 mg (n = 71)) was 25.4%, the “Patients with Headache, percent” value ([2]; 2.5 mg (n = 71)) was 8.5% and the “Patients with Somnolence, percent” value ([2]; 2.5 mg (n = 71)) was 5.6%. For the same compound, the “Adjusted mean LPS (min), p value” ([2]; 2.5 mg vs. placebo) was “p < 0.0001”, the “Adjusted mean TST (min), p value” ([2]; 2.5 mg vs. placebo) was “p < 0.0001” and the “Adjusted mean WASO (min), p value” ([2]; 2.5 mg vs. placebo) was “p < 0.0001”. The “Adjusted mean total wake time, 2nd half (min), p value” ([2]; 2.5 mg vs. placebo) was “p < 0.0001”, the “total time awake during each hour after dosing” value ([2]; 2.5 mg, hour 7 p 0.0577) was “statistically significant reduction each hour, except hour 7” and the REM sleep ([2]; 1.5 and 2.5 mg) was “only a small effect on REM sleep”. For the same compound, the patient-reported sleep quality ([2]; 1.5 and 2.5 mg) was “marked improvement in sleep quality”, the sleep architecture ([2]; 1.5 and 2.5 mg) was “equivalent to the natural sleep architecture” and the slow wave sleep ([2]; 1.5 and 2.5 mg) was “no impairment of slow wave sleep”. For the same compound, the “Digit Symbol Substitution Test (DSST) scores” value ([2]; 9 hours after dose, compared with placebo) was “only slightly lower”, the EC50 ([3]; GABA EC3-5, mean±SD of individually fitted curves, read-out: Potency) was 84 ± 15 nM and the “Standardized Efficacy” value ([3]; standardized to stimulation by 1 μM diazepam (100%)) was 41 ± 8% (n = 5). The Efficacy ([3]; unstandardized current stimulation) was 171 ± 33% (n = 5).
